# Read-outs that look alike come from different tables or passages of the source.
# Experiments:
# [1] = system: phospho-PLCγ1 in Jurkat cells; assay: ITK target modulation PLC-γ assay (phospho-PLCγ1, αCD3-stimulated Jurkat cells); type: cell-based, human; conditions: 1 hour compound incubation, αCD3 Dynabeads stimulation 8 minutes, MSD phospho-PLCγ1, read-out: PLC-γ Inhibition IC50
# ITK = ITK (Homo sapiens (Human), UniProt Q08881); assay: ITK inhibitor binding potency (LanthaScreen competitive binding assay); conditions: TR-FRET tracer-236 displacement, 10 nM ITK; pre-incubation condition not given; read-out: ITK Inhibition IC50
# Excerpt: The ability of candidate compounds to interact with ITK is quantitated by a competitive binding assay using the LanthaScreen technology developed by Life Technologies. This assay is based on the binding of a proprietary, Alexa Fluor® 647-labeled, ATP-competitive kinase inhibitor (kinase tracer-236) to the ITK expression construct in the presence of a Europium-conjugated antibody, resulting in a FRET (fluorescence resonance energy transfer) signal. Displacement of the kinase tracer by compound results in a lower emission ratio upon excitation of the Europium chelate. Candidate compounds are designed as potential irreversible inhibitors of ITK, capable of ligating to an active site cysteine residue resulting in time dependent covalent binding. The time dependent nature of irreversible inhibition is investigated by performing the binding assay with and without a pre-incubation of compound and ITK. […] The inhibitory potency of candidate compounds is measured in 20 mM HEPES pH 7.5, 10 mM MgCl2, 0.01% BSA, 0.0005% Tween-20, and 2% DMSO in the presence of 10 nM ITK, 2 nM Eu-anti-GST antibody, and 50 nM kinase tracer-236 using a 384-well plate format. Background signal is defined in the absence of ITK and uninhibited signal is defined in the presence of vehicle (2% DMSO) alone. Compounds were evaluated in an 11 point dose-response ranging from 20 uM to 0.34 nM. The binding assays are performed under two preincubation conditions to evaluate time dependence of inhibition. For the pre-incubation assay, ITK and Eu-anti-GST antibody are pre-incubated with compound or vehicle for two hours prior to the addition of kinase tracer. The non-preincubated assay is run under conditions where ITK and Eu-anti-GST antibody are added to a mixture of compound and kinase tracer. IC50 values of compounds are determined using a 4 parameter logistical fit of emission ratio as a function of the concentration of compound.
# ITK, sequence (Q08881 whole entry): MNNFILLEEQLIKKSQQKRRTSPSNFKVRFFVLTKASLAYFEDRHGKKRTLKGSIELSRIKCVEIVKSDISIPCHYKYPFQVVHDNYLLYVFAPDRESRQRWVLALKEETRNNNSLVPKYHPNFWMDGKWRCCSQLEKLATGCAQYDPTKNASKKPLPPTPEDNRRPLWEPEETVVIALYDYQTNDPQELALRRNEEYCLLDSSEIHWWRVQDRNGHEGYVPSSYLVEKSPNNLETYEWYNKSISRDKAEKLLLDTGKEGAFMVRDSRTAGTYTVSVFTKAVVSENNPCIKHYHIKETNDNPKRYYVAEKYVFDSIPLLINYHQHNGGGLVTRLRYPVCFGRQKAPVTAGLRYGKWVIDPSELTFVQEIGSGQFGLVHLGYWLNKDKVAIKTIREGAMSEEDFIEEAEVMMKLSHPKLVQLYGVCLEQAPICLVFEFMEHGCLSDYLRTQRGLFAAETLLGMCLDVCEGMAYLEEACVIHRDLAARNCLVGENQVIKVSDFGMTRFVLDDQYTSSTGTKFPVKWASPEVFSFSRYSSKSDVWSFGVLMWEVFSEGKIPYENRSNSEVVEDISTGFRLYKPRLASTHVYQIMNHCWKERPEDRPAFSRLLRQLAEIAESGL
Compound,IC50 ([1]; Homo sapiens) [nM],IC50 (ITK) [nM],IC50 [1] [nM]
"C=CC(=O)Nc1cccc(-c2cnc3[nH]cc(-c4c[nH]c(=O)c5ccccc45)c3c2)c1 [Example 69, N-(3-(3-(1-oxo-1,2-dihydroisoquino-lin-4-yl)-1H-pyrrolo[2,3-b]pyridin-5-yl)phenyl)acryl-amide]",> 5000,≤ 1000,–
"C=C(C)C(=O)Nc1cccc(-c2cnc3[nH]cc(-c4ccnc(OC)c4)c3c2)c1 [Example 81, N-(3-(3-(2-methoxypyridin-4-yl)-1H-pyrrolo[2,3-b]pyridin-5-yl)phenyl)meth-acrylamide]",> 5000,> 1000,–
"CN(C)C/C=C/C(=O)Nc1cccc(-c2cnc3[nH]cc(-c4cccnc4)c3c2)c1 [Example 84, (E)-4-(dimethylamino)-N-(3-(3-(pyridin-3-yl)-1H-pyrrolo[2,3-b]pyridin-5-yl)phenyl)but-2-enamide]",1000 to 5000,≤ 1000,–
"C=CC(=O)Nc1cccc(-c2cnc3[nH]cc(-c4cn(CC5CC5)c(=O)c5ccccc45)c3c2)c1 [Example 86, N-(3-(3-(2-(cyclopropyl-methyl)-1-oxo-1,2-dihydroisoquino-lin-4-yl)-1H-pyrrolo[2,3-b]pyridin-5-yl)phenyl)acryl-amide]",> 5000,> 1000,–
"CN(C)C/C=C/C(=O)Nc1cccc(-c2cnc3[nH]cc(-c4ccnc5[nH]ccc45)c3c2)c1 [Example 89, (E)-N-(3-(1H,1′H-[3,4′-bipyrrolo[2,3-b]pyridin]-5-yl)phenyl)-4-(dimethylamino) but-2-enamide]",< 1000,≤ 1000,–
"N-(6-methoxy- 4-(3-(2- methoxypyridin- 4-yl)-1H- pyrrolo[2,3- b]pyridin-5- yl)pyridin-2- yl)methacryl- amide [Example 68]",–,> 1000,> 5000

# The next lines start with the values.
IC50 ([1]; Homo sapiens) [nM],IC50 (ITK) [nM],IC50 [1] [nM],Compound
1000 to 5000,≤ 1000,–,"C=CC(=O)Nc1cc(-c2cnc3[nH]cc(-c4ccnc(OC)c4)c3c2)cc(OC(C)C)n1 [Example 45, N-(6-isopropoxy-4-(3-(2-methoxypyridin-4-yl)-1H-pyrrolo[2,3-b]pyridin-5-yl)pyridin-2-yl)acrylamide]"
< 1000,> 1000,–,"C=CC(=O)Nc1cccc(-c2cnc3[nH]cc(-c4ccc(C(=O)Nc5ccc(C)cc5C)cc4)c3c2)c1 [Example 67, 4-(5-(3-acrylamidophen-yl)-1H-pyrrolo[2,3-b]pyridin-3-yl)-N-(2,4-dimethylphenyl) benzamide]"
< 1000,≤ 1000,–,"C=CC(=O)Nc1cccc(-c2cnc3[nH]cc(-c4cn(C)c(=O)c5ccccc45)c3c2)c1 [Example 72, N-(3-(3-(2-methyl-1-oxo-1,2-dihydroisoquino-lin-4-yl)-1H-pyrrolo[2,3-b]pyridin-5-yl)phenyl)acryl-amide]"
< 1000,≤ 1000,–,"C=CC(=O)Nc1cccc(-c2cnc3[nH]cc(-c4ccc(C(=O)Nc5ccc(C(C)C)cc5)cc4)c3c2)c1 [Example 74, 4-(5-(3-acrylamidophen-yl)-1H-pyrrolo[2,3-b]pyridin-3-yl)-N-(4-isopropylphenyl) benzamide]"
< 1000,≤ 1000,–,"COc1cc(NC(=O)/C=C/CN(C)C)cc(-c2cnc3[nH]cc(-c4ccnc(OC)c4)c3c2)c1 [Example 76, (E)-4-(dimethylamino)-N-(3-methoxy-5-(3-(2-methoxypyridin-4-yl)-1H-pyrrolo[2,3-b]pyridin-5-yl)phenyl)but-2-enamide]"
> 5000,≤ 1000,–,"CN(C)C/C=C/C(=O)Nc1cccc(-c2cnc3[nH]cc(-c4cccc(C#N)c4)c3c2)c1 [Example 78, (E)-N-(3-(3-(3-cyanophenyl)-1H-pyrrolo[2,3-b]pyridin-5-yl)phenyl)-4-(dimethylamino) but-2-enamide]"
> 5000,≤ 1000,–,"C=C(C)C(=O)Nc1cccc(-c2cnc3[nH]cc(-c4cccnc4)c3c2)c1 [Example 85, N-(3-(3-(pyridin-3-yl)-1H-pyrrolo[2,3-b]pyridin-5-yl)phenyl)meth-acrylamide]"
> 5000,≤ 1000,–,"COc1cc(-c2c[nH]c3ncc(-c4cccc(NC(=O)/C(C#N)=C/C(C)C)c4)cc23)ccn1 [Example 87, (E)-2-cyano-N-(3-(3-(2-methoxypyridin-4-yl)-1H-pyrrolo[2,3-b]pyridin-5-yl)phenyl)-4-methylpent-2-enamide]"
> 5000,≤ 1000,–,"CN(C)C/C=C/C(=O)Nc1cccc(-c2cnc3[nH]cc(-c4ccc(=O)n(CC5CC5)c4)c3c2)c1 [Example 90, (E)-N-(3-(3-(1-(cyclopropyl-methyl)-6-oxo-1,6-dihydropyridin-3-yl)-1H-pyrrolo[2,3-b]pyridin-5-yl)phenyl)-4-(dimethylamino) but-2-enamide]"

# — patent US9695200B2, “Heterocyclic ITK inhibitors for treating inflammation and cancer” (Confluence Life Sciences, Inc., priority 2015, dated 2017)
